In one assay the target is Major prion protein (Homo sapiens, UniProt P04156). It is filed as functional, cell-based.
Assay [1] in a line: Luminescence Cell-Based Dose Response HTS to Identify Activators of Luciferase Translation or Activity in H4 […] Cells. [Related pubchem assays: 1829 (Project Summary), 1814 (Primary HTS)]. It is filed as functional.
The nature of assay [2]: HIV-1 Vif–A3G interaction blockers – biochemical, TR-FRET, GST-Vif 1-94, biotin-A3G peptide, dose response retest, primary screen (AID 1117319).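 Further: TR-FRET signal of purified GST-Vif binding a biotinylated A3G peptide; inhibitors lower the FRET signal by blocking Vif and A3G binding.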 It is filed as functional.
Assay [3] is described as follows: Luminescence Cell-Based Dose Confirmation HTS to Identify Activators of 5'UTR Stem-Loop Driven Alpha-Synuclein mRNA Translation in H4 Neuroglioblastoma Cells. [Related pubchem assays: 1829 (Project Summary), 1814 (Primary HTS)]. It is filed as functional.
Assay [4] has as its target T1, Oxysterols receptor LXR-beta (Homo sapiens, UniProt P55055).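 Further: agonist activity at LXR measured by a cell-based luminescence readout across a dose range, run as a counterscreen for daf-12 agonists; HEK293 cells with Gal4-LXR fusion and GAL4-driven luciferase reporter; potency for activation of Gal4-LXR reporter so compounds are agonists.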
T1 sequence (P55055 whole entry): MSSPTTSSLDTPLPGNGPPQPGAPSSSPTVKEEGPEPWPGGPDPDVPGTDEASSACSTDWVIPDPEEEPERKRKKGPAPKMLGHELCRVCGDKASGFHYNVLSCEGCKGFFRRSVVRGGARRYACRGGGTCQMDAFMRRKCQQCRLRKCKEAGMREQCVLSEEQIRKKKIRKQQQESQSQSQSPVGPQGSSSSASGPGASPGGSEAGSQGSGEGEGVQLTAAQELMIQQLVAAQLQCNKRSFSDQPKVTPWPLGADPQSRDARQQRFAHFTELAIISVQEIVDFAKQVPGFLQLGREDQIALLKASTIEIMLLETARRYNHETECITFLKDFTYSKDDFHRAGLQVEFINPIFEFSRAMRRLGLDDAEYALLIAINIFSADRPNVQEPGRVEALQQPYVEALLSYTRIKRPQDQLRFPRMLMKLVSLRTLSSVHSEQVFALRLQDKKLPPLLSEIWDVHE
It is filed as functional, cell-based.

Assay [5] concerns the target T2, RNA-binding protein pos-1 (Caenorhabditis elegans, UniProt G5EF15).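 Further: purified POS-1 fused to maltose binding protein made in E. coli; potency of compounds blocking POS-1 binding to fluorescent RNA.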
T2 sequence (G5EF15 whole entry): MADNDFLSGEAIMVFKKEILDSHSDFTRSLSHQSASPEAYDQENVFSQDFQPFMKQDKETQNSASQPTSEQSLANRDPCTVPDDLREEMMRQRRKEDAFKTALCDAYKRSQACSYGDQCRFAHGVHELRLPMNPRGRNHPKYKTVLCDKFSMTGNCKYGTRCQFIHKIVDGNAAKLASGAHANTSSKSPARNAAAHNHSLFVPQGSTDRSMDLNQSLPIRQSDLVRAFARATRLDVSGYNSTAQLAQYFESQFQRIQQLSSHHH
The assay is described as follows: disruptors of C. elegans POS-1 RNA interaction – biochemical, fluorescence polarization, dose response (AID 1964). (In general: Polarisation of emitted light reports the rotation of a fluorescent probe.)

In assay [6] the target is T3, Zinc finger protein mex-5 (Caenorhabditis elegans, UniProt Q9XUB2).
T3 sequence (Q9XUB2 whole entry): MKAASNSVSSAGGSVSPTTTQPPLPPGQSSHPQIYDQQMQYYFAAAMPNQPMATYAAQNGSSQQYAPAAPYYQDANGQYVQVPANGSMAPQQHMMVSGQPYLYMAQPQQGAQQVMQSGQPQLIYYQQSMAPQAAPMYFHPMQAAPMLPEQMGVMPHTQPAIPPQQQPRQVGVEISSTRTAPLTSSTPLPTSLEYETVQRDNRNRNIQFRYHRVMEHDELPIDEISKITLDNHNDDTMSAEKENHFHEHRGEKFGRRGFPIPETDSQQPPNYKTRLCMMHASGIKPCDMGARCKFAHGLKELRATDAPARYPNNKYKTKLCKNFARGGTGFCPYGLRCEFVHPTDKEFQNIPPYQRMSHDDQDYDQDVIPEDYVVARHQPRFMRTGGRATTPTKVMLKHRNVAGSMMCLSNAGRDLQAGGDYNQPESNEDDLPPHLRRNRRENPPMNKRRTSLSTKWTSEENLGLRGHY
Nature of the assay: potency of MEX-5 RNA-binding blockers – biochemical, C. elegans, fluorescence polarization, dose response (AID 1960).

The target in assay [7] is T4, Sentrin-specific protease 8 (Homo sapiens, UniProt Q96LD8).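 Further: luminescence read-out of SENP8 inhibition, dose-response confirmation following an ultra-high-throughput screen.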
T4 sequence (Q96LD8 whole entry): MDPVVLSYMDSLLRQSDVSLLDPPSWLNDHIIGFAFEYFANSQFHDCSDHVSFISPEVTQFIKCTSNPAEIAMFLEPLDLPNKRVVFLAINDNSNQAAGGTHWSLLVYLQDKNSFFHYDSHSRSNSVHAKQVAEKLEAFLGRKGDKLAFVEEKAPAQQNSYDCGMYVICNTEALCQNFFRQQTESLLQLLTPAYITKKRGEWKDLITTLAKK
It is filed as functional.

Assay [8] deals with T5, Sentrin-specific protease 7 (Homo sapiens, UniProt Q9BQF6).
T5 sequence (Q9BQF6 whole entry): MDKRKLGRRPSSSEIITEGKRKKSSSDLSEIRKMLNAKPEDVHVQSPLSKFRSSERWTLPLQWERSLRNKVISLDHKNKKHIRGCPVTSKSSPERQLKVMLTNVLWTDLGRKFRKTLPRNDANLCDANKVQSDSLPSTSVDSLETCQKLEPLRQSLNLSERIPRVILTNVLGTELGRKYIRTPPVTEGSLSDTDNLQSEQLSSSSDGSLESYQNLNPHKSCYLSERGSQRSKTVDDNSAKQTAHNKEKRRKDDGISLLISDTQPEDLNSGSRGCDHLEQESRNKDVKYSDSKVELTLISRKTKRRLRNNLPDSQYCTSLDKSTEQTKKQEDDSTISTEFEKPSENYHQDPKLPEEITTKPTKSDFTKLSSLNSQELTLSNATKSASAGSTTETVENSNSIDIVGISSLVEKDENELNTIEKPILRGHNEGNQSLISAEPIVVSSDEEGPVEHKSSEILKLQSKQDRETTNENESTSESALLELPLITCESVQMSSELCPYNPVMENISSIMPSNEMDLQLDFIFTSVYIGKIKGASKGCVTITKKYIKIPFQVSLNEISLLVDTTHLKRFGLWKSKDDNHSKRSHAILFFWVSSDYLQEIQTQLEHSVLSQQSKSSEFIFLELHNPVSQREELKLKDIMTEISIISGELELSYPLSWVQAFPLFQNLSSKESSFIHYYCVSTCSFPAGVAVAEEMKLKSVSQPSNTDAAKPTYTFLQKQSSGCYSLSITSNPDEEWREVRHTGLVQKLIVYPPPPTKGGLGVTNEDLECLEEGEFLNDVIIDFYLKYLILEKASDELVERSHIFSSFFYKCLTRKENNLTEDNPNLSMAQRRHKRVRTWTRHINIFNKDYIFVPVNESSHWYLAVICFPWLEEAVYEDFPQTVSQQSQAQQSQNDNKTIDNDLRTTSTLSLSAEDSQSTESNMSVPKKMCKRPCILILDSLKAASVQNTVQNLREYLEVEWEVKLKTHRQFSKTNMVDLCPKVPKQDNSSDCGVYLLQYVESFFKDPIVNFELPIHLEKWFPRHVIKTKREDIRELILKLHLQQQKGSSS
It is filed as functional.

Assay [9] has as its target T6, Sentrin-specific protease 6 (Homo sapiens, UniProt Q9GZR1).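 Further: Luminescence-based dose-response confirmatory assay of SENP6 inhibition, following up an ultra-high-throughput screen.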
T6 sequence (Q9GZR1 whole entry): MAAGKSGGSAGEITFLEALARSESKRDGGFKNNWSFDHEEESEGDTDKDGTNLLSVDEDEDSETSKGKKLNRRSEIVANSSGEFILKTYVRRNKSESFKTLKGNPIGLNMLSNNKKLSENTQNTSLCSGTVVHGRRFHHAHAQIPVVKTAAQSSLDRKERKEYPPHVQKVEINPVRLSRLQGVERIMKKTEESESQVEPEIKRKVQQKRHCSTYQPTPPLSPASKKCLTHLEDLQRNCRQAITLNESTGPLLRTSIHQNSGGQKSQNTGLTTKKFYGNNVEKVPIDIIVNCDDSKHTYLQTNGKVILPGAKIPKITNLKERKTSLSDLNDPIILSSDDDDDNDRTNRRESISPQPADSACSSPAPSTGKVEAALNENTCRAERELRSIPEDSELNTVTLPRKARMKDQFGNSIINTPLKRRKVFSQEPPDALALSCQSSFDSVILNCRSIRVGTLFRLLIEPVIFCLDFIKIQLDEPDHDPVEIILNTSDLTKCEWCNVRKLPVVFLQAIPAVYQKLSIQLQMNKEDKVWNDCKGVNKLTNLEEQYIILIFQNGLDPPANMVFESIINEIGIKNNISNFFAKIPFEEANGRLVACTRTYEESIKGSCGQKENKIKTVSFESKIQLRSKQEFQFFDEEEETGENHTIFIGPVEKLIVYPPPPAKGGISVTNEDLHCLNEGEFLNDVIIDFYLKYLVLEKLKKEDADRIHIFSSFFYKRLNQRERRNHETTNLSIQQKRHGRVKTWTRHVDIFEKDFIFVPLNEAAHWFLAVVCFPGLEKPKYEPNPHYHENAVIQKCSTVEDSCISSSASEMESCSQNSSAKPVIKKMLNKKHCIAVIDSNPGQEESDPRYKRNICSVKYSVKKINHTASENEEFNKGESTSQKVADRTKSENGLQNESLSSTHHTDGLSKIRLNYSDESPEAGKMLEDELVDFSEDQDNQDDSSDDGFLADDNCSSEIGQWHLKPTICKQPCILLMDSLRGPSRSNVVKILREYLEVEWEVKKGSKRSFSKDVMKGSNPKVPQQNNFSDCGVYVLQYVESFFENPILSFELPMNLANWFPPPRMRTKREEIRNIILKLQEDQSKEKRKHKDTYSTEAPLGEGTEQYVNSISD
It is filed as functional.

The target of assay [10] is FAD-linked sulfhydryl oxidase ALR (Homo sapiens, UniProt P55789). Nature of the assay: ALR-catalysed DTT oxidation blockers – biochemical, H2O2 detection, luminescence, cherry-pick, dose response (AID 493248).
Another assay concerns the target T7, Caspase-3 (Homo sapiens, UniProt P42574).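 Further: Dose-response selectivity test against caspase-3 for candidate inhibitors of sentrin-specific proteases (SENPs).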
T7 sequence (P42574 whole entry): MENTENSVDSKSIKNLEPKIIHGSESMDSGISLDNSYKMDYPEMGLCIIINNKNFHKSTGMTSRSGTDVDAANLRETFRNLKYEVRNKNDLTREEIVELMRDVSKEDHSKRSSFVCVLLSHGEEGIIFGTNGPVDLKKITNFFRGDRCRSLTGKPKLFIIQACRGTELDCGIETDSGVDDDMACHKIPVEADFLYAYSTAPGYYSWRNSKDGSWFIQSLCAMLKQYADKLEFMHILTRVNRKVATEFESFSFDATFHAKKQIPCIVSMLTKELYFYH
It is filed as functional.

Assay [11] addresses Endoplasmic reticulum aminopeptidase 1 (Homo sapiens, UniProt Q9NZ08). The assay is described as follows: inhibition of human ERAP1 enzyme activity – biochemical, cherry-pick, set 2, plate reader, dose response (AID 743314).

Active and inactive are the calls of the source.

By IC50 is commonly meant the concentration that gives 50% inhibition. What is called EC50 is the concentration that produces a half-maximal response. For orientation: AC50 means the concentration at which the activity in the assay is half-maximal.

Turning to `CCOC(=O)CSc1nc(CC)nc2ccccc12`, the IC50 in “cells” was > 138 µM (inactive); at Major prion protein, 1.08 µM (active).
Consider `CCCS(=O)(=O)NCc1cn2c(C)csc2n1`, for which the EC50 in assay [1] is 12.6 µM (active); in [3] it was 6.17 µM (active); in [4], > 67.5 µM (inactive). Also, in assay [2], the IC50 is > 100 µM (active).
For `Cc1nnc(S)c2nn(-c3cccc(Cl)c3)c(C)c12`, the results for the IC50 in the assay “cells” and at Major prion protein were > 138 µM (inactive) and 5.53 µM (active), respectively. In addition, the 50% effective concentration (EC50) is 137 µM (active) in assay [5] and 153 µM (active) in assay [6].
Turning to `Cc1cccc(N=Nc2cnc(N)s2)c1`, the IC50 in assay [7] was 19.1 µM (active); in assay [8], 9.64 µM (active); in assay [9], 25.8 µM (active); on Caspase-3, 34.5 µM (active). For the same compound, in [10], the AC50 was 1.29 µM (active). In addition, the EC50 in [4] was > 67.6 µM (inactive).
`Cc1ccc(-c2cn3cccnc3n2)cc1`: the EC50 in [4] is > 67.6 µM (inactive).
For the compound `COC(=O)[C@H]1[C@H](CO)[C@H]2Cn3c(ccc(/C=C/c4ccccc4)c3=O)[C@@H]1N2CC1CCCC1`, in [11], the AC50 is 11.9 µM (active).
For `CCCN1[C@@H]2c3ccc(/C=C/c4ccccc4)c(=O)n3C[C@H]1[C@H](CO)[C@H]2C(=O)NCc1ccccn1`, the AC50 in [11] was 6.65 µM (active).

These data come from ChEMBL document CHEMBL1201862, “PubChem BioAssay data set” (2004).
